Laboratory results published in patent publication US20130217092A1, “Enhancing Reactivation of Thermostable Reversibly Inactivated Enzymes” (Qiagen GmbH, priority 2006, published 2013).

Assays:
Assay type in all cases: biochemical
[1] = biological target: chemically modified enzyme (Thermus aquaticus, UniProt P19821); assay: Additionally tested compounds, enhancement of enzyme activity of a chemically modified enzyme; conditions: conditions not stated
[2] = biological target: T1, HotStarTaq DNA Polymerase (Thermus aquaticus, UniProt P19821); assay: Fast PCR with shortened cycling times, agarose gel, Example 2; conditions: 100, 200, 300, 400 and 500 mM Triazole vs absence of Triazole; FIG. 1
T1 construct: purchased QIAGEN
T1 sequence (P19821 whole entry): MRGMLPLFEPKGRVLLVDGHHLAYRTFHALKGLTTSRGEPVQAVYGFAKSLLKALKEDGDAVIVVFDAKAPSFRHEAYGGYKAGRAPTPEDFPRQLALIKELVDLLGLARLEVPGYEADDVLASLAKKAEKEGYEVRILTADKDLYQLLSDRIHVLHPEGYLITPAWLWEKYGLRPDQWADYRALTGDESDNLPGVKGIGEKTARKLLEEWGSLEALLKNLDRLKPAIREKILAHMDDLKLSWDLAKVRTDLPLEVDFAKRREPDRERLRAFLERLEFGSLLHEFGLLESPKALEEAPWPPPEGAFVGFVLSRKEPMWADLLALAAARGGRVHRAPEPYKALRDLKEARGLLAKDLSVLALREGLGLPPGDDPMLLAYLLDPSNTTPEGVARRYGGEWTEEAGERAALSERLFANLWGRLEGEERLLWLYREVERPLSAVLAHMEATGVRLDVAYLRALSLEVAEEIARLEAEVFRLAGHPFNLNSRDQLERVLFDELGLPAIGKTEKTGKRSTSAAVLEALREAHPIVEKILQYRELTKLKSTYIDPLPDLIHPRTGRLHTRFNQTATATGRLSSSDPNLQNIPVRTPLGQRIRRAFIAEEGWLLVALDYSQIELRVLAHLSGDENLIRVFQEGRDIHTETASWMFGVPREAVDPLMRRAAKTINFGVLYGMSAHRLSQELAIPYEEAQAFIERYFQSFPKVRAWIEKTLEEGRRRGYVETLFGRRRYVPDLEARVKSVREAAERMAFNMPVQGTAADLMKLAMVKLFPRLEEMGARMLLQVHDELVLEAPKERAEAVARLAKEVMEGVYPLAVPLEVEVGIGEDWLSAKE
Description: Each PCR reaction contained 1.5 units HotStarTaq DNA Polymerase, 10 ng template human genomic DNA, 200 μM of each dNTP, 0.5 μM primer A: 5′-CACACAGCGATGGCAGCTATGC-3′ (SEQ ID NO:3), 0.5 […] primer B: 5′-CCC AGT GAT GGG CCA GCT C-3′ (SEQ ID NO:4), PCR grade water and in case of testing nitrogen-containing compounds as example 100 mM, 200 mM, 300 mM, 400 mM and 500 mM Triazole, final concentration. PCR reactions were started with an initial enzyme activation step at 95° C. for 5 minutes followed by 35 cycles: 96° C. for 5 seconds, 60° C. for 5 seconds and 68° C. for 30 seconds. PCR products were analysed on a 1% TAE agarose gel (FIG. 1).

[3] = biological target: T1, HotStarTaq DNA Polymerase; assay: Fast PCR with 20 mM ammonium chloride and Triazole, agarose gel, Example 5
Description: System C shown in Example 4 was chosen as model system. Each PCR reaction contained 1.5 units HotStarTaq DNA Polymerase, 10 ng template human genomic DNA, 200 μM of each dNTP, 0.5 μM of each primer A: 5′-CCTTGCCTTAGATGTGTCGGCA-3′ (SEQ ID NO:11), primer B: 5′-CCCAAACCCAACCCATACACAC -3′ (SEQ ID NO:12), and PCR grade water. PCR reactions were started with an initial enzyme activation step at 95° C. for 5 minutes followed by 35 cycles: 96° C. for 5 seconds, 60° C. for 5 seconds and 68° C. for 45 seconds. PCR products from duplicate reactions were analysed on a 1% TAE agarose gel. M: DNA size ladder.

[4] = biological target: T2, unmodified Taq DNA Polymerase (QIAGEN) (Thermus aquaticus, UniProt P19821); assay: SYBR Green I real-time PCR, Example 1 (control enzyme)
T2 construct: purchased QIAGEN
T2 sequence (P19821 whole entry): as the sequence (P19821 whole entry) above
Description: (§1) In real-time PCR, the enzymatic reaction is continuously monitored by measuring fluorescence signals throughout the reaction. Double-stranded DNA molecules are generated during the PCR reaction. These PCR products are detected by using SYBR Green I fluorescent dye that binds selectively to dsDNA only. Thus, an increase of fluorescence indicates an increase in PCR product amount and thus activity of the DNA polymerase contained in the reaction. […] Thus, the CT value is a measurement for the enzyme activity contained in the reaction: Low CT values indicate high enzyme activity and high CT values represent lower enzyme activity residing in the reaction.
A SYBR Green I based PCR reaction was conducted in the presence of unmodified Taq DNA Polymerase (QIAGEN) serving as a control reaction, using HotStarTaq DNA polymerase (QIAGEN) or AmpliTaq Gold (Applied Biosystems). Each reaction contained 0.625 units of the respective DNA polymerase, 1× PCR reaction buffer of the respective DNA polymerase, 200 μM of each dNTP, 0.5 μM primer A: 5′-[…]-3′ (SEQ ID NO:1), 0.5 μM primer B: 5′-[…]-3′ (SEQ ID NO:2), PCR grade water and in case of testing nitrogen-containing compounds as example 100 mM Triazole, final concentration. […] Average CT values were determined from triplicate reactions comparing reactions without the addition of Triazole and with 100 mM Triazole.

[5] = biological target: T3, HotStarTaq DNA polymerase (QIAGEN) (Thermus aquaticus, UniProt P19821); assay: SYBR Green I real-time PCR, Example 1, reactivation of chemically modified enzyme
T3 construct: purchased QIAGEN
T3 sequence (P19821 whole entry): as the sequence (P19821 whole entry) above
Description: (§2) As model system to exemplify the invention, hot start PCR was chosen with two commercially available enzymes. […] AmpliTaq Gold (Applied Biosystems) is chemically inactivated using dicarboxylic acid anhydride whereas HotStarTaq (QIAGEN) is chemically inactivated using formaldehyde.
as §1
(§3) A SYBR Green I based PCR reaction was conducted in the presence of unmodified Taq DNA Polymerase (QIAGEN) serving as a control reaction, using HotStarTaq DNA polymerase (QIAGEN) or AmpliTaq Gold (Applied Biosystems). Each reaction contained 0.625 units of the respective DNA polymerase, 1× PCR reaction buffer of the respective DNA polymerase, 200 μM of each dNTP, 0.5 μM primer A: 5′-[…]-3′ (SEQ ID NO:1), 0.5 μM primer B: 5′-[…]-3′ (SEQ ID NO:2), PCR grade water and in case of testing nitrogen-containing compounds as example 100 mM Triazole, final concentration. Each reaction contained 10 ng human genomic DNA as amplification substrate. PCR reactions were started with an initial enzyme activation step at 95° C. for 5 minutes followed by 50 cycles: 94° C. for 15 seconds and 60° C. for 60 seconds. Average CT values were determined from triplicate reactions comparing reactions without the addition of Triazole and with 100 mM Triazole.

[6] = biological target: T4, AmpliTaq Gold (Applied Biosystems) (Thermus aquaticus, UniProt P19821); assay: as above
T4 construct: purchased Applied Biosystems
T4 sequence (P19821 whole entry): as the sequence (P19821 whole entry) above
Description: as §2, §1, §3

[7] = biological target: T1, HotStarTaq DNA Polymerase; assay: Fast PCR with ammonium chloride, agarose gel, Example 4; conditions: 10, 20 and 30 mM ammonium chloride vs 0 mM; PCR assays A, B, C; FIG. 3
Description: Each PCR reaction contained 1.5 units HotStarTaq DNA Polymerase, 10 ng template human or mouse genomic DNA, 200 μM of each dNTP, 0.5 μM of each primer for each different PCR assay (Assay A, primer A1: 5′-GCTTGAGCAACCTGGCTAAGATAGAGG-3′ (SEQ ID NO:7), primer A2: 5′-GAGTTAGCAGGAGGCTGGATGCAGATG-3′ (SEQ ID NO:8); Assay B, primer B1: 5′-CCACAATGGACATCACACAAGTGAG-3′ (SEQ ID NO:9), primer B2: 5′-GATCTTTCTGCCCAGATACCATTCG-3′ (SEQ ID NO:10); Assay C, primer C1: 5′-CCTTGCCTTAGATGTGTCGGCA-3′ (SEQ ID NO:11), primer C2: 5′-CCCAAACCCAACCCATACACAC-3′ (SEQ ID NO:12)) and PCR grade water. PCR reactions were started with an initial enzyme activation step at 95° C. for 5 minutes followed by 35 cycles: 96° C. for 5 seconds, 60° C. for 5 seconds and 68° C. for 30 seconds/kb PCR product size. PCR products were analysed on a 1% TAE agarose gel. M: DNA size ladder (FIG. 3).

Chain of chemically modified enzyme (P19821 whole entry): as the sequence (P19821 whole entry) above

Molecule: N.N.O=P(O)(O)O [di-ammonium hydrogen phosphate]
- improvement of enzyme activity [1]: no improvement

Molecule: N.O=C(O)c1ccccc1 [ammonium benzoate]
- improvement of enzyme activity [1]: no improvement

Molecule: ammonium citrate
- improvement of enzyme activity [1]: no improvement

Molecule: Triazole
- enzyme activity / generation of the desired PCR product under fast cycling [2]: significantly improves enzyme activity
- enzyme activity of the chemically modified enzyme ([3]; 500 mM Triazole in the presence of 20 mM ammonium chloride): still higher than in the reaction without Triazole
- enzyme activity of the chemically modified enzyme ([3]; Triazole 100-500 mM in the presence of 20 mM ammonium chloride vs no Triazole, FIG. 4): clear benefit for the enzyme activity
- effect on the enzyme activity ([4]; 100 mM Triazole, unmodified Taq DNA polymerase): no effect
- Average CT value with 100 mM Triazole ([4]; Taq (unmodified), activation 95° C. for 5 minutes, triplicate reactions, low CT = high enzyme activity): 21.3
- effect on the enzyme activity ([5]; 100 mM Triazole, HotStarTaq DNA Polymerase): clearly higher enzyme activity
- Average CT value with 100 mM Triazole ([5]; HotStarTaq, activation 95° C. for 5 minutes, triplicate reactions, low CT = high enzyme activity): 35.9
- effect on the enzyme activity ([6]; 100 mM Triazole): clearly higher enzyme activity
- Average CT value with 100 mM Triazole ([6]; activation 95° C. for 5 minutes, triplicate reactions, low CT = high enzyme activity): 25.6

Molecule: Cl.N [ammonium chloride]
- overall enzyme activity of the chemically inactivated enzyme [7]: increase of overall enzyme activity

Molecule: N.N.O=S(=O)(O)O [ammonium sulfate]
- improvement of enzyme activity [1]: no improvement

Molecule: N.N.O=C(O)O [ammonium carbonate]
- improvement of enzyme activity [1]: no improvement
